Laboratory results reported in patent publication US11040052B2, “Methods and pharmaceutical compositions for modulating autophagy in a subject in need thereof” (INSERM (INSTITUT NATIONAL DE LA SANTE ET DE LA RECHERCHE …, priority 2013, dated 2021).
“Also recorded” adds a separate entry of the source. Like-named read-outs stand apart in the source and are kept apart here.

Experiments:
[1] = test system: intracellular amino acid levels; experiment: Intracellular amino acid levels by mass spectrometry; format: cell-based; details: starved cells
Procedure: Profiling of intracellular metabolites was performed on a RRLC 1260 system (Agilent Technologies) coupled to a QTOF 6520 (Agilent) equipped with an electrospray source operating in positive ion and full scan mode from 100 to 1000 Da. The gas temperature was set at 350° C. with a gas flow of 10 L·min^1. The capillary voltage was set at 4.0 kV, and the fragmentor at 150 V. Two reference masses were used to maintain the mass accuracy during analysis: 121.050873 (C5H4N4) and 922.009798 (C18H18O6N3P3F24). Five μL of sample were injected on a 150 mm×2.1 mm 3.5 μm SB Aq column (Agilent) with a pre-column 30 mm×2.1 mm 3.5 μm Eclipse plus (Agilent). The gradient mobile phase consisted of water with 10 mmol/L of ammonium acetate and 0.01% of acetic acid (A) and acetonitrile (B). Initial composition of mobile phase was 2% of B, followed by an increase to 95% of B in 10 min. The flow rate was set to 0.3 mL·min^−1.

MCA205 tumor = experiment: Growth of transplantable tumors with chemotherapy; format: in vivo, mice; details: for tumor growth, combined with MTX: immunocompetent wild type mice, agent given before and with mitoxanthrone; for tumor growth, combined with MTX, immunodeficient mice: nu/nu (nude athymic) mice; for tumor growth, combined with oxaliplatin: data not shown
Procedure: (§1) C57BL/6 mice (Charles River Laboratory, Lentilly, France) were bred and maintained according to both the FELASA and the Animal Experimental Ethics Committee Guidelines (Val de Marne, France). Mice were housed in a temperature-controlled environment with 12 h light/dark cycles and received food and water ad libitum. For HC-related experiments, mice were injected intraperitoneally with a single 100 mg/kg dose and 6 h later were sacrificed and tissues were immediately frozen in liquid nitrogen. For DCA- and DMKG-related experiments, mice were subjected to 24 h starvation and injected intraperitoneally each 8 h with a 100 mg/kg of either DCA or DMKG solution prepared in PBS. After 24 h of starvation, mice were sacrificed and tissues were immediately frozen in liquid nitrogen after extraction and homogenized two cycles for 20 s at 5,500 rpm using Precellys 24 tissue homogenator (Bertin Technologies, Montigny-le-Bretonneux, France) in a 20 mM Tris buffer (pH 7.4) containing 150 mM NaCl, 1% Triton X-100, 10 mM EDTA and Complete® protease inhibitor cocktail (Roche Applied Science). Tissue extracts were then centrifuged at 12,000 g at 4° C. and supernatants were collected. Protein concentration in the supernatants was evaluated by the bicinchoninic acid technique (BCA protein assay kit, Pierce Biotechnology, Rockford, Ill.). For hydroxycitrate-related weight-loss experiments, autophagy-deficient Atg4b^−/− mice were used. Atg4b^−/− mice have been previously described (Mariño et al., 2010). For HC-, spermidine-, and resveratrol-related experiments (tumour growth) mice were intraperitoneally injected with respectively 100 mg/kg, 50 mg/kg and 100 mg/kg doses at day 8 and day 9. At day 9, mice were intraperitoneally injected with 2 mg/kg single dose of Mitoxanthrone. For starvation related experiment (tumour growth) mice were treated as previously described (Fabrizio et. al., 2010).
Six weeks old female C57BL/6, Balb/c and nude athymic mice (Harlan Laboratory, Gannat, France) were bred and maintained according to both the FELASA and the Animal Experimental Inserm Ethics Committee Guidelines (project: 2012-69). Mice were housed in a temperature-controlled environment with 12 h light/dark cycles and received food and water ad libitum. For tumor growth experiments, procedures adopted are described as follows: 3×10^5 tumor cells were subcutaneously inoculated; when tumors became palpable (day −1 before chemotherapy), mice were first intraperitoneally injected with 100 mg/kg Potassium Hydroxycitrate, 10 mg/kg Acetylsalicylic Acid, 30 mg/kg SB204990, 30 mg/kg c646, 5 mg/kg Rapamycin, 25 mg/kg Resveratrol, 50 mg/kg Spermidine. At day 0, mice were intraperitoneally injected with the abovementioned compounds and with 5.17 mg/Kg Mitoxanthrone or 5 mg/kg Oxaliplatin. Tumor size was measured every two days. For starvation experiments, mice underwent 48 hour fasting followed by intreperitoneal injection of chemotherapeutics. For autophagy induction study, 6 hours after CRMs administration, mice were sacrificed and tissues were snap-frozen in liquid nitrogen after extraction and homogenized two cycles for 20 s at 5,500 rpm using Precellys 24 tissue homogenator (Bertin Technologies, Montigny-le-Bretonneux, France) in a 20 mM Tris buffer (pH 7.4) containing 150 mM NaCl, 1% Triton X-100, 10 mM EDTA and Complete® protease inhibitor cocktail (Roche Applied Science, Penzberg, Germany). Tissue extracts were then centrifuged at 12,000 g at 4° C. and supernatants were collected. Protein concentration in the supernatants was evaluated by the bicinchoninic acid technique (BCA protein assay kit, Pierce Biotechnology, Rockford, US.

[2] = test system: autophagy in mice tissues; experiment: Autophagy induction in tissues of fed mice (LC3 lipidation, p62, GFP-LC3 dots); format: in vivo
Procedure: as §1
To avoid post-mortem autophagy induction, dead mice were immediately perfused with 4% paraformaldehyde (w:v in PBS, pH 7.4). Tissues were then harvested and further fixed with the same solution for at least 4 h, followed by treatment with 15% sucrose (w:v in PBS) for 4 h and with 30% sucrose (w:v in PBS) overnight. Tissue samples were embedded in Tissue-Tek OCT compound (Sakura Finetechnical Co. Ltd., Tokyo, Japan) and stored at −70° C. Five μm-thick tissue sections were prepared with a CM3050 S cryostat (Leica Microsystems GmbH, Wetzlar, Germany), air-dried for 1 h, washed in PBS for 5 min, dried at RT for 30 min, and mounted with VECTASHIELD anti-fading medium. In each organ, the number of GFP-LC3 dots was counted in five independent visual fields from at least five mice using a TCS SP2 confocal fluorescence microscope (Leica Microsystems GmbH).
Six weeks old female C57BL/6, Balb/c and nude athymic mice (Harlan Laboratory, Gannat, France) were bred and maintained according to both the FELASA and the Animal Experimental Inserm Ethics Committee Guidelines (project: 2012-69). Mice were housed in a temperature-controlled environment with 12 h light/dark cycles and received food and water ad libitum. For tumor growth experiments, procedures adopted are described as follows: 3×10^5 tumor cells were subcutaneously inoculated; when tumors became palpable (day −1 before chemotherapy), mice were first intraperitoneally injected with 100 mg/kg Potassium Hydroxycitrate, 10 mg/kg Acetylsalicylic Acid, 30 mg/kg SB204990, 30 mg/kg c646, 5 mg/kg Rapamycin, 25 mg/kg Resveratrol, 50 mg/kg Spermidine. At day 0, mice were intraperitoneally injected with the abovementioned compounds and with 5.17 mg/Kg Mitoxanthrone or 5 mg/kg Oxaliplatin. Tumor size was measured every two days. For starvation experiments, mice underwent 48 hour fasting followed by intreperitoneal injection of chemotherapeutics. […]

Structure (SMILES)	intracellular amino acid levels [1]	tumor growth, combined with MTX (MCA205 tumor)	tumor growth, combined with MTX, immunodeficient mice (MCA205 tumor)	autophagy in vivo (LC3 lipidation, p62, GFP-LC3) [2]	other results
COC(=O)CCC(=O)C(=O)OC [DMKG, dimethyl-α-ketoglutarate]	failed to enhance intracellular amino acid levels				
CC(C)CC(=O)C(=O)O [KIC, ketoisocaproic acid]	barely increased intracellular leucine levels				
CC1=NN(c2ccc(C(=O)O)cc2)C(=O)/C1=C\c1ccc(-c2cc(C)c(C)cc2[N+](=O)[O-])o1 [c646]		can enhance chemotherapy efficacy	failed	elicits autophagy in mice muscle after 6 hours; also recorded: induced autophagy both in vitro, in cultured cells, and in vivo, in mice	tumor growth, combined with MTX (MCA205 tumor; listed as C646): HC could be replaced
O=C(O)CC(O)(C(=O)O)C(O)C(=O)O (stereo not shown) [HC, hydroxycitrate]		mimics the effects of 48 h fasting in delaying subcutaneous MCA205 tumor growth; also recorded: improves the efficacy of chemotherapy and significantly reduces tumor growth of MCA205 cells in wild type; also recorded: similarly improved tumor growth reduction by MTX; also recorded: more efficient than monotherapy with MTX	not in immunodeficient nu/nu mice	induced an increase in autophagic flux in vivo; also recorded: strongly stimulated autophagy both in vitro and in vivo; also recorded: triggered a systemic autophagic response comparable to that induced by starvation; also recorded: similarly efficient as a starvation period of 48 h	tumor growth, combined with MTX, autophagy-deficient tumors (MCA205 tumor; MCA205 cells with Atg5 or Atg7 shRNA): tumor growth control is lost; also recorded: largely therapy-resistant; tumor growth, combined with oxaliplatin (MCA205 tumor): caused superior tumor growth reduction, but only in WT, not in nu/nu mice; tumor growth, combined with oxaliplatin (MCA205 tumor; listed as hydroxycitrate): improved the therapeutic outcome of treatments with MTX (FIG. 8G) or oxaliplatin; tumor growth, combined with MTX (MCA205 tumor; listed as hydroxycitrate): enhanced the tumor growth-inhibitory effect of chemotherapy as efficiently as did starvation; also recorded: improved the therapeutic outcome of treatments with MTX; tumor growth, combined with MTX, CD39-expressing tumors (MCA205 tumor; tumors engineered to express the ecto-ATPase CD39, data not shown): lost its therapeutic efficacy; autophagy in vivo (LC3 lipidation, p62, GFP-LC3) ([2]; listed as Hydroxycitrate): elicits autophagy in mice muscle after 6 hours; autophagy in vivo (LC3 lipidation, p62, GFP-LC3) ([2]; listed as hydroxycitrate): triggered a systemic autophagic response comparable to that induced by starvation
